Values joined by “and” are separate entries in the source; they are usually repeats but may differ in a detail not shown here. Identical values can stand only once.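 Dose response: 5 concentrations. Exposure: 48 h. Format: 96-well plates. Endpoint: linear interpolation; highest concentration if not reached. GI50 is the concentration that inhibits growth by half. TGI is the concentration that stops growth completely.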 Where a SMILES comes first, the peptide text is derived from it. [ ]: non-standard residue; d: D form. The star is where a group is joined. ξ: configuration not given here. 4Abz = Nc1ccc(C(=O)O)cc1; ξL = CC(C)CC(N)C(=O)O; NHOH = ON*
Assays:
Assay in all cases: NCI tumour cell line growth inhibition, 48 h
HS 578T breast = system: HS 578T breast
MDA-MB-435 = system: MDA-MB-435
BT-549 breast = system: BT-549 breast
T-47D breast = system: T-47D breast
HL-60(TB) leukemia = system: HL-60(TB) leukemia
MCF7 breast = system: MCF7 breast

| SMILES | GI50 (HS 578T breast) [µM] | TGI (HS 578T breast) | GI50 (MDA-MB-435) [µM] | TGI (MDA-MB-435) | GI50 (BT-549 breast) [µM] | TGI (BT-549 breast) | GI50 (T-47D breast) [nM] | TGI (T-47D breast) | GI50 (HL-60(TB) leukemia) [nM] | TGI (HL-60(TB) leukemia) | GI50 (MCF7 breast) [nM] | TGI (MCF7 breast) |
| --- | --- | --- | --- | --- | --- | --- | --- | --- | --- | --- | --- | --- |
| C=CC[n+]1c(/C=C2\Sc3ccccc3N2C)sc(-c2ccccc2)c1-c1ccccc1 | 0.374 | 19.4 µM | 0.335 | 1.68 µM | 0.296 | 0.907 µM | 242 | 0.782 µM | 241 | 0.665 µM | 286 | 1.77 µM |
| CC(C)CC(NC(=O)[C@@H]1CCCN1C(=O)CNC(=O)c1ccc(N)cc1)C(=O)N[C@H](C)C(=O)NO (some centres not stated) (H-[4Abz]GP[ξL][dA]-{NHOH}) | > 100 | > 100 µM | > 100 | > 100 µM | > 100 | > 100 µM | > 100000 | > 100 µM |  |  | > 100000 | > 100 µM |
| COC(=O)C1=C(O)C(C(=O)OC)[C@@]2(O)[C@@H](C(=O)OC)C(c3ccccc3C(F)(F)F)C[C@@H]1[C@@H]2C(=O)OC (some centres not stated) | 3.87 | > 100 µM | 2.06 | 4.53 µM | 3.08 | 11.9 µM | 737 | 5.98 µM |  |  | 2990 | 12.1 µM |
| COC(=O)C(=O)C(C(=O)C(=O)Nc1ccc(Cl)cc1Cl)c1nc2ccc(Cl)cc2[nH]c1=O (configuration not stated) |  | > 100 µM |  | > 100 µM |  | > 100 µM |  |  |  | > 100 µM |  | > 100 µM |
| O=C(NCCc1ccccc1)C(c1csc2ccccc12)N(C(=O)CCl)c1ccc(-c2cnco2)cc1 (configuration not stated) | 1.44 | 7.2 µM | 1.54 | 3.18 µM | 0.228 | 0.574 µM | 1020 | 2.89 µM | 762 | 2.8 µM | 1430 | 3.26 µM |
| O=C(CCCCCn1c2ccccc2c2c3c(c4c5ccccc5[nH]c4c21)C(=O)N(O)C3=O)N1CCOCC1 | 2.78 | 7.95 µM | 2.25 | 5.58 µM |  |  | 2610 | 7.89 µM | 2010 | 5.45 µM | 1410 | > 100 µM |
| CC(C)n1c2c(c3ccccc3c1=O)C(=O)c1ccccc1-2 |  | > 100 µM |  | > 100 µM |  | > 100 µM |  | > 100 µM |  | > 100 µM |  | > 100 µM |
| Cc1c(Br)cccc1NC(=O)c1sc2nc3c(cc2c1N)CN(Cc1ccccc1)CC3 | 0.208 | 15.4 µM | 0.0366 | 0.141 µM | 0.708 | 25.3 µM | 205 | > 50 µM | 161 | 0.456 µM | 170 | > 50 µM |
| COc1ccc(OC)c(-c2cc(-c3ccc(Cl)cc3)nn2-c2ccc(S(N)(=O)=O)cc2)c1 | 21.9 | 63.1 µM | 18.2 | 43.9 µM | 12.4 | 29.4 µM |  |  | 14300 | > 100 µM | 3900 | 26.2 µM |
| CCCCCCCC(=O)SCC/C=C/[C@@H]1CC(=O)NCc2cccc(n2)CN(Cc2ccc(Cl)cc2)CC(=O)N[C@@H](C(C)C)C(=O)O1 | 6.05 | 56.1 µM | 6.06 | > 100 µM | 37.1 | > 100 µM | 29300 | 98.7 µM | 23100 | > 100 µM | 12100 | > 100 µM |
| COc1ccc2c(c1)Cc1cc(N=[N+]([O-])c3ccc4c(c3)Cc3cc(OC)ccc3-4)ccc1-2 |  | > 100 µM |  | > 100 µM |  | > 100 µM |  | > 100 µM |  | > 100 µM |  | 64.4 µM |
| Nc1nc(Cl)cc2c1ncn2C1OC(CO)C(O)C1O (configuration not stated) | > 100 | > 100 µM | > 100 | > 100 µM | > 100 | > 100 µM | > 100000 | > 100 µM | > 100000 | > 100 µM | > 100000 | > 100 µM |
| COC(=O)C1=C(O)C(C(=O)OC)[C@@]2(O)[C@@H](C(=O)OC)C(c3ccc(OC(=O)C(Cc4ccccc4)NC(C)=O)cc3)C[C@@H]1[C@@H]2C(=O)OC (some centres not stated) | 20.4 | 75.3 µM | 23.5 | 50.2 µM | 38 | > 100 µM | 39200 | > 100 µM |  |  | 17000 | 95.3 µM |
| COC(=O)c1ccc2c(c1)[n+](=O)c(C(C)=O)c(C(F)(F)F)n2[O-] | 2.37 | 5.84 µM | 1.75 | 3.6 µM | 2.07 | 4.51 µM | 2060 | 4.2 µM | 1940 | 7.87 µM | 1760 | 3.37 µM |
| CN1CCN(c2nc(NCCNc3ccnc4cc(Cl)ccc34)c3ccccc3n2)CC1 | 2.74 | 9.58 µM | 1.85 | 3.61 µM | 3.49 | 12.8 µM | 1940 | 4.79 µM | 1740 | 3.5 µM | 1000 | 13.9 µM |
| COc1ccc(/C(C#N)=C/c2nc3c(N4CCOCC4)nc(Cl)nc3n2C)cc1OC | < 0.01 | 2.68 µM | < 0.01 | < 0.01 µM | < 0.01 | 0.244 µM | 272 | 3.15 µM | < 10 | < 0.0112 µM | < 13.7 | 1.75 µM |

| SMILES | GI50 (HS 578T breast) [µM] | TGI (HS 578T breast) | GI50 (MDA-MB-435) [µM] | TGI (MDA-MB-435) | GI50 (BT-549 breast) [µM] | TGI (BT-549 breast) | GI50 (T-47D breast) [nM] | TGI (T-47D breast) | GI50 (HL-60(TB) leukemia) [nM] | TGI (HL-60(TB) leukemia) | GI50 (MCF7 breast) [nM] | TGI (MCF7 breast) |
| --- | --- | --- | --- | --- | --- | --- | --- | --- | --- | --- | --- | --- |
| COC1=CC(=O)c2c(O)c3c(c(O)c2C1=O)CC(C)(O)OC3 (configuration not stated) |  | 35.9 µM |  | 3.05 µM |  | 18.7 µM |  | 8.38 µM |  | 24.2 µM |  | 7.29 µM |
| COc1cc(Oc2cnc3cc(N)cc(N)c3n2)cc(OC)c1OC | 37.9 | > 100 µM | 24.3 | 59.1 µM | 43.5 | > 100 µM | 33500 | > 100 µM | 21900 | 45 µM | 35400 | > 100 µM |
| N#CC1=C(N)NC(=S)NC1c1ccc(-c2ccc(-c3nc4ccccc4s3)cc2)o1 (configuration not stated) | > 50 | > 50 µM | 39.1 | > 50 µM | 21.7 | > 50 µM | 43200 | > 50 µM | 30700 | > 50 µM | 9710 | > 50 µM |
| O=c1cc(N2CCOCC2)oc2c(-c3ccccc3)cccc12 | 3.16 | > 30.6 µM and 11.4 µM | 4.23 | 31.1 µM and 37.2 µM | 1.79 | > 19.8 µM and 76.2 µM | 3030 | 48.7 µM and 8.31 µM | 3380 | 38.2 µM and > 100 µM |  | > 57 µM and 16.1 µM |
| C=C1c2c(C)nn(-c3ccccc3)c2N(C)C23C[C@@H]1C1(C)c4c(C)nn(-c5ccccc5)c4N(C)C(C)(C[C@H]12)C3 (some centres not stated) | 5.67 | 80.1 µM | 4.12 | > 100 µM | 5.55 | > 100 µM | 2130 | > 100 µM |  |  | 2990 | > 100 µM |
| Cc1cc(C)c2nc(Nc3nc(C)c(C)c(=O)[nH]3)nc(C)c2c1 | 4.53 | 34.1 µM | 3.13 | 13.2 µM | 2.01 | 8.48 µM | 1650 | 8.42 µM | 2530 | 6.98 µM | 2140 | 10.7 µM |
| CC(C)=CCNc1ncnc2c1ncn2C1OC(COP(=O)(O)O)C(O)C1O (configuration not stated) | 2.67 | 21.8 µM | 6.68 | > 100 µM | 2.43 | 6.81 µM | 4960 | 25.4 µM | 1940 | 6.33 µM | 1720 | > 91.3 µM |
| N#CC1=C(N)Oc2c(sc3c(F)cccc23)C1c1ccc(Cl)cc1 (configuration not stated) | 2.63 | 15.5 µM | 0.616 | 2.7 µM | 3.6 | 22.5 µM | 3430 | 25.3 µM | 2690 | 8.3 µM | 1850 | 12 µM |
| O=C1C=Cc2cc3ccccc3c3cccc1c23 | 4.09 | 11.7 µM | 16.3 | 70.7 µM | 9.66 | 51.9 µM | 21200 | > 100 µM |  |  | 5260 | 37.7 µM |
| Cc1ccc(NC(=O)C(=O)C2C(=O)C3=C(CC2(C)C)NC2C=CC=CC2S3)c(C)c1 (configuration not stated) |  | > 100 µM |  | > 100 µM |  | > 100 µM |  |  |  | > 100 µM |  | > 100 µM |
| CCSc1sc(-c2ccc(C)cc2)nc1[P+](c1ccccc1)(c1ccccc1)c1ccccc1 | 0.394 | 2.05 µM | 0.268 | 0.801 µM | 0.295 | 1.32 µM | 86.3 | 1.27 µM | 206 | 0.542 µM |  |  |
| COc1cc2c(cc1OC)[C@@H]1[C@H](C2=O)c2ccc([N+](=O)[O-])cc2C(=O)N1CCCBr | 5.45 | 50.6 µM |  |  | 1.96 | 23.9 µM | < 10 | > 100 µM |  |  | < 10 | 0.284 µM |
| Clc1cc(Cl)c2n[se]nc2c1 |  |  |  |  |  |  |  |  |  | > 100 µM |  |  |
| COc1cc(OC)cc(-c2n[nH]nc2-c2ccc3c(c2)OCO3)c1 | 0.442 | > 100 µM |  |  |  |  |  |  |  |  | 76.8 | > 100 µM |
| OCCOCn1nc(-c2ccccc2)nc1-c1cnccn1 |  |  |  |  |  | > 100 µM |  | > 100 µM |  | > 100 µM |  | > 100 µM |

Reference: PubChem BioAssay (NCI)
